Biological target: T1, mouse TRPM3a2 (mTRPM3) ion channel (Mus musculus, UniProt J9SQF3)
T1 construct: expressed in transfected cells; host or cells: flip-in HEK293
Assay: TRPM3 ion channel driven Ca2+ uptake, Fluo-4 AM assay (PS-stimulated, overexpressing flip-in HEK293 cells)
Format: cell-based
Experimental: In order to monitor the inhibition of the mouse TRPM3a2 (mTRPM3) ion channel by the compounds of the invention, a cellular system making use of an mTRPM3alpha2 or hTRPM3 overexpressing cell line (flip-in HEK293) was used. The TRPM3 channel was stimulated/opened with Pregnenolone sulfate (PS) (50 μM) which results in Ca^2+ influx.
For mTRPM3, the intracellular Ca^2+ was measured with a Calcium responsive dye, Fluor-4 AM ester (Invitrogen). Cells were cultured until a confluence of 80-90%, washed with Versene (Invitrogen) and detached from the surface by a short incubation with 0.05% Trypsin (Invitrogen). The trypsination process was stopped by the addition of complete cell culture medium (DMEM, glutamax, 10% FCS, NEAA, Pen-Strep). Cells were collected and resuspended in Krebs buffer without Calcium at RT.
Prior the cell seeding (±2000 cells/well into a black, 384 well plate (Greiner)) the diluted compound was added in the assay plate, together with the PS dissolved in Krebs buffer containing Calcium. […] Directly after cell addition the plates were read on an Envision fluorescence reader (Perkin Elmer) by an Excitation of 485 nm and emission at 535 nm.
Channel inhibition was calculated compared to a non-PS stimulated control versus a condition stimulated with PS (50 μM) with vehicle. The ability of the compounds of the invention to inhibit this activity was determined as: Percentage inhibition=[1-((RFU determined for sample with test compound present—RFU determined for sample with positive control inhibitor) divided by (RFU determined in the presence of vehicle—RFU determined for sample with positive control inhibitor))]*100.

[1] = PS (50 μM) stimulated, cpd 001-199
[2] = PS (50 μM) stimulated Ca2+ influx, HEK293, cpds 300-399
[3] = PS (50 μM) stimulated, cpds. 400-499

T1 sequence (J9SQF3 1-1709 isoform J9SQF3-12): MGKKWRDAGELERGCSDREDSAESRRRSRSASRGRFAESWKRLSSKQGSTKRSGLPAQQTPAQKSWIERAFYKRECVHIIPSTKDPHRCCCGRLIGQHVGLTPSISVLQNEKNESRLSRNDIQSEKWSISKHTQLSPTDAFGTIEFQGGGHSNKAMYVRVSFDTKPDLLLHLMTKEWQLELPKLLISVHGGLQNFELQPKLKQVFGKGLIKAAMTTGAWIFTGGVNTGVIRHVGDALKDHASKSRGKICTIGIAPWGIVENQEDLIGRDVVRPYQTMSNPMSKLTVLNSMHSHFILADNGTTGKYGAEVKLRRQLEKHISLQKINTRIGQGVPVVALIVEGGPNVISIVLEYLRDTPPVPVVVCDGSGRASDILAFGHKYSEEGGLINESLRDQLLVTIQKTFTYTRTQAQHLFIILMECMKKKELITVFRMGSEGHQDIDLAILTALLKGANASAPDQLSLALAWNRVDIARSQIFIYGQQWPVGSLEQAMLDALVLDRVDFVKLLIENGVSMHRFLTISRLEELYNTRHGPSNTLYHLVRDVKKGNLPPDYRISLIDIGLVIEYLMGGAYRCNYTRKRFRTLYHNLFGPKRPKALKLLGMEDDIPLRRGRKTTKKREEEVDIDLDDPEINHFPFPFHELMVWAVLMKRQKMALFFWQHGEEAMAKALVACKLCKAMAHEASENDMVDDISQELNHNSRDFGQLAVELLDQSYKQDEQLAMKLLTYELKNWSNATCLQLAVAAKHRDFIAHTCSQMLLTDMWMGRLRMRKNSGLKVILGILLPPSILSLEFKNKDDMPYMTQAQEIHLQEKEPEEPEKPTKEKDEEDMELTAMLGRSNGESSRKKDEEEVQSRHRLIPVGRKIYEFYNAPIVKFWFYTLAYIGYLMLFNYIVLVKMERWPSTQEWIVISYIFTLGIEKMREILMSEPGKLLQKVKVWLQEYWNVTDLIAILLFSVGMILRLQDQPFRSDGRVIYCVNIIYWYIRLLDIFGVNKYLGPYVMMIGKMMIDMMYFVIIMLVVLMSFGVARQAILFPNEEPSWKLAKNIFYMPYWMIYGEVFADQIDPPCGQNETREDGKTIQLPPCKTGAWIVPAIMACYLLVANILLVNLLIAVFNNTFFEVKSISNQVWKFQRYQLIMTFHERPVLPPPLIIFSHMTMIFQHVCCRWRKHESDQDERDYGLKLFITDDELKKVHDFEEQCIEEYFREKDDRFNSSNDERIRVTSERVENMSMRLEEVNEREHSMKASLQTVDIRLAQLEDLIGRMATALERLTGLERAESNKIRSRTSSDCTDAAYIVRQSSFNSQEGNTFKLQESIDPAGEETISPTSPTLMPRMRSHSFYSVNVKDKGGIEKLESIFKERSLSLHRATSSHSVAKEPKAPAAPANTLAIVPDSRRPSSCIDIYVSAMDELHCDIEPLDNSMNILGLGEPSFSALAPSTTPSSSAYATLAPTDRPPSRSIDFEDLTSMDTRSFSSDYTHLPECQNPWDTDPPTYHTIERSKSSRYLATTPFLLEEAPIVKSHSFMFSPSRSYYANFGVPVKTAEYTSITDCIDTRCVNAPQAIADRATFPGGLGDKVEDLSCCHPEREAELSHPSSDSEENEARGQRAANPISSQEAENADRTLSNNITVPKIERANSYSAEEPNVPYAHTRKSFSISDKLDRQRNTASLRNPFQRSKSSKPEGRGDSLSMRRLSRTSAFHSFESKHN

| Structure (SMILES) | IC50 [1] | IC50 [2] | also measured |
| --- | --- | --- | --- |
| Cc1oc2ccc(OCc3cccnc3C(F)(F)F)cc2c1C(=O)O | 1000 to 20000 nM | – | – |
| Cc1ncsc1COc1ccc2oc(C)c(C(=O)NC3CCN(C)CC3(F)F)c2c1 (single isomer, unassigned) [110 - En 1] | ≤ 1000 nM | – | – |
| Cc1ncsc1COc1ccc2oc(C)c(C(=O)NC3CN(C)CCC3(F)F)c2c1 (single isomer, unassigned) [118 - En 1] | ≤ 1000 nM | – | – |
| Cc1ncsc1COc1ccc2oc(C)c(C(=O)NC3CN(C)CC3(F)F)c2c1 (single isomer, unassigned) [123 - En 1] | ≤ 1000 nM | – | – |
| Cc1oc2ccc(OCc3cccnc3C(F)(F)F)cc2c1C(=O)NC1(CCO)CCOC1 (single isomer, unassigned) [126 - En 1] | ≤ 1000 nM | – | – |
| Cc1oc2ccc(OCc3cccnc3C(F)(F)F)cc2c1C(=O)NC1CCN(C)CC1(F)F (single isomer, unassigned) [130 - En 1] | ≤ 1000 nM | – | – |
| Cc1oc2ccc(OCc3cccnc3C(F)(F)F)cc2c1C(=O)NC1CN(C)CCC1(F)F (single isomer, unassigned) [131 - En 1] | ≤ 1000 nM | – | – |
| Cc1oc2ccc(OCc3cccnc3C(F)(F)F)cc2c1C(=O)NC1CN(CCO)CC1(F)F (single isomer, unassigned) [134 - En 1] | 1000 to 20000 nM | – | – |
| Cc1oc2ccc(OCc3cccnc3C(F)(F)F)cc2c1C(=O)NC1CN(CCO)CC1(F)F (single isomer, unassigned) [134 - En 2] | ≤ 1000 nM | – | – |
| Cc1oc2ccc(OCc3cccnc3C(F)(F)F)cc2c1C(=O)NC1CN(C)CC(F)(F)C1 (single isomer, unassigned) [141 - En 1] | ≤ 1000 nM | – | – |
| Cc1ncsc1COc1ccc2oc(C)c(C(=O)NC3CN(CCO)CC3(F)F)c2c1 (single isomer, unassigned) [151 - En 1] | ≤ 1000 nM | – | – |
| Cc1ncsc1COc1ccc2oc(C)c(C(=O)NC3CN(CC(F)(F)F)CC3(F)F)c2c1 (single isomer, unassigned) [155 - En 1, N-(4,4-difluoro-1-(2,2,2-trifluoroethyl)pyrrolidin-3-yl)-2-methyl-5-((4-methylthiazol-5-yl)me-thoxy)benzofuran-3-carboxamide] | ≤ 1000 nM | – | – |
| Cc1ncsc1COc1ccc2oc(C)c(C(=O)NC3CN(CC(F)(F)F)CC3(F)F)c2c1 (single isomer, unassigned) [155 - En 2, N-(4,4-difluoro-1-(2,2,2-trifluoroethyl)pyrrolidin-3-yl)-2-methyl-5-((4-methylthiazol-5-yl)me-thoxy)benzofuran-3-carboxamide] | ≤ 1000 nM | – | – |
| Cc1ncsc1COc1ccc2oc(C)c(C(=O)NC3CN(C)CC(F)(F)C3)c2c1 (single isomer, unassigned) [163 - En 1] | ≤ 1000 nM | – | – |
| Cc1oc2cc(Cl)c(OCc3cccnc3C(F)(F)F)cc2c1C(=O)NC1CCNCC1(F)F (single isomer, unassigned) [165 - En 1] | ≤ 1000 nM | – | – |
| Cc1oc2cc(Cl)c(OCc3cccnc3C(F)(F)F)cc2c1C(=O)NC1CCNCC1(F)F (single isomer, unassigned) [165 - En 2] | 1000 to 20000 nM | – | – |
| COCCN1CCC(NC(=O)c2c(C)oc3ccc(OCc4scnc4C)cc23)C1=O (single isomer, unassigned) [169 - En 1] | ≤ 1000 nM | – | – |
| COCCN1CCC(NC(=O)c2c(C)oc3ccc(OCc4scnc4C)cc23)C1=O (single isomer, unassigned) [169 - En 2] | ≤ 1000 nM | – | – |
| Cc1ncsc1COc1ccc2oc(C)c(C(=O)NC3CC(=O)N(CCO)C3)c2c1 (single isomer, unassigned) [180 - En 1] | 1000 to 20000 nM | – | – |
| Cc1oc2c(C)cc(OCc3cccnc3C(F)(F)F)cc2c1C(=O)NC1CCNCC1(F)F (single isomer, unassigned) [183 - En 1, N-(3,3-difluoropiperidin-4-yl)-2,7-dimethyl-5-((2-(trifluoromethyl)pyridin-3-yl)methoxy)benzofuran-3-carboxamide] | 1000 to 20000 nM | – | – |

| Structure (SMILES) | IC50 [1] | IC50 [2] | also measured |
| --- | --- | --- | --- |
| Cc1oc2c(C)cc(OCc3cccnc3C(F)(F)F)cc2c1C(=O)NC1CCNCC1(F)F (single isomer, unassigned) [183 - En 2, N-(3,3-difluoropiperidin-4-yl)-2,7-dimethyl-5-((2-(trifluoromethyl)pyridin-3-yl)methoxy)benzofuran-3-carboxamide] | ≥ 20000 nM | – | – |
| Cc1oc2c(Cl)cc(OCc3cccnc3C(F)(F)F)cc2c1C(=O)NC1CCNCC1(F)F (single isomer, unassigned) [184 - En 1] | 1000 to 20000 nM | – | – |
| Cc1oc2c(Cl)cc(OCc3cccnc3C(F)(F)F)cc2c1C(=O)NC1CCNCC1(F)F (single isomer, unassigned) [184 - En 2] | ≥ 20000 nM | – | – |
| Cc1oc2cc(C#N)c(OCc3cccnc3C(F)(F)F)cc2c1C(=O)NC1CCNCC1(F)F (single isomer, unassigned) [195 - En 2, 6-cyano-N-(3,3-difluoropiperidin-4-yl)-2-methyl-5-((2-(trifluoromethyl)pyridin-3-yl)methoxy)-benzofuran-3-carboxamide] | 1000 to 20000 nM | – | – |
| Cc1ncsc1COc1ccc2oc(C)c(C(=O)NC3CCN(CCO)C3=O)c2c1F (single isomer, unassigned) [326 - En 1] | – | ≤ 1000 nM | – |
| Cc1ncsc1COc1ccc2oc(C)c(C(=O)NC3CCN(CCO)C3=O)c2c1F (single isomer, unassigned) [326 - En 2] | – | 1000 to 20000 nM | – |
| Cc1oc2ccc(OCc3ccnn3CC(F)F)cc2c1C(=O)NC1(CO)CCNC1=O (single isomer, unassigned) [333 - En 1] | – | ≤ 1000 nM | – |
| CCOc1ncccc1COc1ccc2oc(C)c(C(=O)NC3CCN(CCO)C3=O)c2c1 (single isomer, unassigned) [348 - En 1] | – | ≤ 1000 nM | – |
| Cc1oc2ccc(OCc3c(F)cnn3C)cc2c1C(=O)NC1(CO)CCCNC1=O (single isomer, unassigned) [355 - En 1] | – | ≤ 1000 nM | – |
| Cc1oc2ccc(OCc3nccn3C)cc2c1C(=O)NC1CCN(CCO)C1=O (single isomer, unassigned) [403 - En 1] | – | – | IC50 [3]: 1000 to 20000 nM |
| Cc1oc2ccc(OCc3nccn3C)cc2c1C(=O)NC1CCN(CCO)C1=O (single isomer, unassigned) [403 - En 2] | – | – | IC50 [3]: ≥ 20000 nM |
| Cc1oc2ccc(OCc3ccnn3C)cc2c1C(=O)NC1CCN(CCO)C1=O (single isomer, unassigned) [404 - En 1] | – | – | IC50 [3]: 1000 to 20000 nM |
| Cc1oc2ccc(OCc3ccccn3)cc2c1C(=O)NC1CCN(CCO)C1=O (single isomer, unassigned) [406 - En 1] | – | – | IC50 [3]: ≤ 1000 nM |
| Cc1oc2ccc(OCc3nccs3)cc2c1C(=O)NC1CCN(CCO)C1=O (single isomer, unassigned) [407 - En 1] | – | – | IC50 [3]: ≤ 1000 nM |
| Cc1oc2ccc(OCc3nccs3)cc2c1C(=O)NC1CCN(CCO)C1=O (single isomer, unassigned) [407 - En 2] | – | – | IC50 [3]: 1000 to 20000 nM |
| Cc1oc2ccc(OCc3cccnc3O)cc2c1C(=O)NC1CCN(CCO)C1=O (single isomer, unassigned) [408 - En 1] | – | – | IC50 [3]: ≤ 1000 nM |
| COc1ncccc1COc1ccc2oc(C)c(C(=O)NC3CCN(CCO)C3=O)c2c1 (single isomer, unassigned) [409 - En 1] | – | – | IC50 [3]: ≤ 1000 nM |
| Cc1ncsc1COc1ccc2oc(C)c(C(=O)NC3(C)CCN(CCO)C3=O)c2c1 (single isomer, unassigned) [410 - En 1] | – | – | IC50 [3]: ≤ 1000 nM |
| Cc1ncsc1COc1ccc2oc(C)c(C(=O)NC3(C)CCN(CCO)C3=O)c2c1 (single isomer, unassigned) [410 - En 2] | – | – | IC50 [3]: 1000 to 20000 nM |

The next lines start with results.

| IC50 [1] | IC50 [2] | Structure (SMILES) | also measured |
| --- | --- | --- | --- |
| – | ≤ 1000 nM | Cc1oc2ccc(OCc3c(F)cnn3C)cc2c1C(=O)NC1(CO)CCNC1=O (single isomer, unassigned) [356 - En 1] | – |
| – | ≤ 1000 nM | Cc1ncsc1COc1cc2c(C(=O)NC3CCN(CCO)C3=O)c(C)oc2cc1F (single isomer, unassigned) [360 - En 1] | – |
| – | ≥ 20000 nM | Cc1ncsc1COc1cc(F)c2oc(C)c(C(=O)NC3CCN(CCO)C3=O)c2c1 (single isomer, unassigned) [365 - En 1] | – |
| – | ≤ 1000 nM | Cc1ncc(COc2ccc3oc(C)c(C(=O)NC4COCC4O)c3c2)s1 (single isomer, unassigned) [386 - En 1] | – |
| – | 1000 to 20000 nM | Cc1ncc(COc2ccc3oc(C)c(C(=O)NC4COCC4O)c3c2)s1 (single isomer, unassigned) [386 - En 2] | – |
| – | ≤ 1000 nM | Cc1oc2ccc(OCc3ccccn3)cc2c1C(=O)NC1COCC1O (single isomer, unassigned) [387 - En 1] | – |
| – | ≤ 1000 nM | Cc1ncc(COc2ccc3oc(C)c(C(=O)NC4COCC4O)c3c2)s1 (single isomer, unassigned) [388 - En 1] | – |
| – | 1000 to 20000 nM | Cc1ncc(COc2ccc3oc(C)c(C(=O)NC4COCC4O)c3c2)s1 (single isomer, unassigned) [388 - En 2] | – |
| – | ≤ 1000 nM | Cc1ncc(C(C)Oc2ccc3oc(C)c(C(=O)NC(CO)C(N)=O)c3c2)s1 (single isomer, unassigned) [395 - Dia 1] | – |
| – | ≤ 1000 nM | Cc1ncsc1COc1ccc2oc(C)c(C(=O)NC(C)C(=O)N(C)CCO)c2c1 (single isomer, unassigned) [396 - En 1] | – |
| – | ≤ 1000 nM | Cc1ncsc1COc1ccc2oc(C)c(C(=O)NC(C)C(=O)NCCO)c2c1 (single isomer, unassigned) [397 - En 1] | – |

From patent US20240336602A1 (Katholieke Universiteit Leuven, priority 2020, published 2024)
